From patent US11306078B2, “Piperidine CXCR7 receptor modulators” (IDORSIA PHARMACEUTICALS LTD., priority 2016, dated 2022)

Target: human chemokine receptor CXCR7 (Homo sapiens (Human), UniProt P25106)
Assay: Tango CXCR7-bla U2OS beta-arrestin recruitment assay (beta-lactamase reporter, FRET), antagonism of CXCL12/SDF1-α;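 further: compounds preincubated 15 min before CXCL12 addition, then 22 h at 37 °C, FRET emission ratio read with CCF4-AM substrate after 2 h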
Format: cell-based
Conditions: antagonistic effect on CXCR7; Tango CXCR7-bla U2OS cells, CXCL12/SDF1-α at its EC80

human chemokine receptor CXCR7, sequence (P25106 whole entry): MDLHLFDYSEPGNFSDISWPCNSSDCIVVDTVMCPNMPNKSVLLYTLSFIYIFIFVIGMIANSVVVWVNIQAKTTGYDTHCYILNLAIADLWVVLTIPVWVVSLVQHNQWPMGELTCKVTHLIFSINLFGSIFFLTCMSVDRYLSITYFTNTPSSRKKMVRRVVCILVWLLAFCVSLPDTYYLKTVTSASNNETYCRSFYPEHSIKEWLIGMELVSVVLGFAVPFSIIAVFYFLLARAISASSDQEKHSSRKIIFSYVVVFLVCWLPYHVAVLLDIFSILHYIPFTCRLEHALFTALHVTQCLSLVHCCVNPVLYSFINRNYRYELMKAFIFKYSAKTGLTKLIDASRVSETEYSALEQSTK

Compound	IC50
CN(C)C(=O)[C@@H]1CN(C2CCC(C)(C)C2)CC[C@H]1NC(=O)c1cc(-c2ccc(F)cc2F)on1 (stereo partly shown) [Example 2.018]	145 nM
CN(C)C(=O)[C@@H]1CN(C2CCC(F)(F)CC2)CC[C@H]1NC(=O)c1cc(-c2ccc(F)cc2F)on1 [Example 2.027]	745 nM
CN(C)CCNC(=O)[C@@H]1CN(C2CCCCC2)CC[C@H]1NC(=O)c1cc(-c2ccc(F)cc2F)on1 (racemic) [Example 1.023, rac-(3R*,4R*)-1-Cyclohexyl-4-{[5-(2,4-difluoro-phenyl)-isoxazole-3-carbonyl]-amino}-piperidine-3-carboxylic acid (2-dimethylamino-ethyl)-amide]	743 nM
O=C(N[C@H]1CCN(CC2CC2)C[C@@H]1C(=O)NC1(c2cnccn2)CC1)c1cc(-c2ccc(F)cc2F)on1 [Example 1.179, (3S,4S)-1-Cyclopropylmethyl-4-{[5-(2,4-difluoro-phenyl)-isoxazole-3-carbonyl]-amino}-piperidine-3-carboxylic acid (1-pyrazin-2-yl-cyclopropyl)-amide]	50 nM
CCN1CC[C@@H](NC(=O)c2cc(-c3ccc(F)cc3F)on2)[C@H](C(=O)N(C)C)C1 [Example 2.002]	670 nM
CC(NC(=O)[C@H]1CN(C2CCCC2)CC[C@@H]1NC(=O)c1cc(-c2ccc(F)cc2F)on1)c1ccon1 (stereo partly shown) [Example 4.04]	86 nM
O=C(N[C@@H]1CCN(C2CCCCC2)C[C@H]1C(=O)NCc1cnccn1)c1cc(-c2ccc(F)cc2F)on1 (racemic) [Example 1.037, rac-(3R*,4R*)-1-Cyclohexyl-4-{[5-(2,4-difluoro-phenyl)-isoxazole-3-carbonyl]-amino}-piperidine-3-carboxylic acid (pyrazin-2-ylmethyl)-amide]	295 nM
O=C(N[C@H]1CCN(C2CCCC2)C[C@@H]1C(=O)NC1(c2ccccn2)CC1)c1cn(-c2ccc(F)cc2F)nn1 [Example 2.092]	95 nM
C[C@@H]1CC[C@H]1N1CC[C@@H](NC(=O)c2cc(-c3ccc(F)cc3F)on2)[C@H](C(=O)N(C)C)C1 [Example 2.016]	80 nM
CCN(C)C(=O)[C@@H]1CN(CC2CC2)CC[C@H]1NC(=O)c1cc(-c2ccc(F)cc2F)on1 [Example 2.077]	112 nM
O=C(N[C@@H]1CCN(C2CCCCC2)C[C@H]1C(=O)NC1(c2ccccn2)CC1)c1nnc(-c2ccc(F)cc2F)o1 (racemic) [Example 3.012, rac-(3R*,4R*)-1-Cyclohexyl-4-{[5-(2,4-difluoro-phenyl)-[1,3,4]oxadiazole-2-carbonyl]-amino}-piperidine-3-carboxylic acid (1-pyridin-2-yl-cyclopropyl)-amide]	26 nM
O=C(N[C@H]1CCN(C2CCCCC2)C[C@@H]1C(=O)NC(CO)c1ccccn1)c1cc(-c2ccc(F)cc2F)on1 (stereo partly shown) [Example 4.013]	145 nM
CC(C)(C#N)NC(=O)[C@@H]1CN(C2CCCCC2)CC[C@H]1NC(=O)c1cc(-c2ccc(F)cc2F)on1 [Example 4.019]	151 nM
CC1(NC(=O)[C@H]2CN(C3CCCCC3)CC[C@@H]2NC(=O)c2cc(-c3ccc(F)cc3F)on2)CCC1 [Example 4.006]	149 nM
COc1ccccc1C(C)NC(=O)[C@H]1CN(CC2CC2)CC[C@@H]1NC(=O)c1cc(-c2ccc(F)cc2F)on1 (stereo partly shown) [Example 4.072]	16 nM
Cc1cc(CNC(=O)[C@@H]2CN(C3CCCCC3)CC[C@H]2NC(=O)c2cc(-c3ccc(F)cc3F)on2)nn1C (racemic) [Example 1.045, rac-(3R*,4R*)-1-Cyclohexyl-4-{[5-(2,4-difluoro-phenyl)-isoxazole-3-carbonyl]-amino}-piperidine-3-carboxylic acid (1,5-dimethyl-1H-pyrazol-3-ylmethyl)-amide]	565 nM
O=C(N[C@H]1CCN(C2CCCC2)C[C@@H]1C(=O)NC1(c2ccccn2)CC1)c1cc(-c2ccc(F)cc2F)on1 [Example 4.028]	32 nM
O=C(N[C@H]1CCN(CC2CC2)C[C@@H]1C(=O)NC1(c2ncccn2)CC1)c1cc(-c2ccc(F)cc2F)ns1 [Example 7.014, (3S,4S)-1-Cyclopropylmethyl-4-{[3-(2,4-difluoro-phenyl)-isothiazole-5-carbonyl]-amino}-piperidine-3-carboxylic acid (1-pyrimidin-2-yl-cyclopropyl)-amide]	629 nM
Cc1nnc(C(C)NC(=O)[C@@H]2CN(C3CCCCC3)CC[C@H]2NC(=O)c2cc(-c3ccc(F)cc3F)on2)o1 (relative stereo) [Example 1.085, (3R*,4R*)-1-Cyclohexyl-4-{[5-(2,4-difluoro-phenyl)-isoxazole-3-carbonyl]-amino}-piperidine-3-carboxylic acid [(1RS)-1-(5-methyl-[1,3,4]oxadiazol-2-yl)-ethyl]-amide]	268 nM
C[C@@H](NC(=O)[C@H]1CN(C2CCCCC2)CC[C@@H]1NC(=O)c1cc(-c2ccc(F)cc2F)on1)C1CCC1 [Example 4.014]	363 nM
CCN1CC[C@H](NC(=O)c2cc(-c3ccc(F)cc3F)on2)[C@@H](C(=O)NC(C)(C)c2ncccn2)C1 [Example 4.096]	33 nM
O=C(N[C@@H]1CCN(CC2CC2)C[C@H]1C(=O)NC1(c2ncccn2)CC1)c1noc(-c2ccc(F)cc2F)c1F (single isomer, unassigned) [Example 3.022a, (3R,4R)-1-Cyclopropylmethyl-4-{[5-(2,4-difluoro-phenyl)-4-fluoro-isoxazole-3-carbonyl]-amino}-piperidine-3-carboxylic acid (1-pyrimidin-2-yl-cyclopropyl)-amide or (3S,4S)-1-cyclopropylmethyl-4-{[5-(2,4-difluoro-phenyl)-4-fluoro-isoxazole-3-carbonyl]-amino}-piperidine-3-carboxylic acid (1-pyrimidin-2-yl-cyclopropyl)-amide]	25 nM
rac-(3R*,4R*)-1-Cyclohexyl-4-{[5-(2-difluoro-phenyl)-oxazole-2-carbonyl]-amino}-piperidine-3-carboxylic acid (1-pyridin-2-yl-cyclopropyl)-amide [Example 3.011]	22 nM
CC1(NC(=O)[C@@H]2CN(C3CCCCC3)CC[C@H]2NC(=O)c2cc(-c3ccc(F)cc3F)on2)CCOC1 (relative stereo) [Example 1.084, (3R*,4R*)-1-Cyclohexyl-4-{[5-(2,4-difluoro-phenyl)-isoxazole-3-carbonyl]-amino}-piperidine-3-carboxylic acid ((3RS)-3-methyl-tetrahydro-furan-3-yl)-amide]	223 nM
C[C@@H](NC(=O)[C@H]1CN(CC2CC2)CC[C@@H]1NC(=O)c1cc(-c2ccc(F)cc2F)on1)c1cccc(Br)c1 [Example 4.075]	2 nM
COc1ccccc1C1(NC(=O)[C@H]2CN(CC3CC3)CC[C@@H]2NC(=O)c2cc(-c3ccc(F)cc3F)on2)CC1 [Example 4.074]	27 nM
CC(NC(=O)[C@H]1CN(C2CCCCC2)CC[C@@H]1NC(=O)c1cc(-c2ccc(F)cc2F)on1)c1ccc(F)cn1 (stereo partly shown) [Example 4.008]	150 nM
COCC(C)(C)NC(=O)[C@@H]1CN(C2CCCCC2)CC[C@H]1NC(=O)c1cc(-c2c(F)cc(F)cc2F)on1 (single isomer, unassigned) [Example 1.111b, (3R*,4R*)-1-Cyclohexyl-4-{[5-(2,4,6-trifluoro-phenyl)-isoxazole-3-carbonyl]-amino}-piperidine-3-carboxylic acid (2-methoxy-1,1-dimethyl-ethyl)-amide]	114 nM
